Results from patent US6528481B1, “NG2/HM proteoglycan-binding peptides that home to angiogenic vasculature and related methods” (The Burnam Institute, priority 1999, dated 2003).
Where no end group is shown, it is not given here.

How the values were obtained:
[1] = target: NG2 (Rattus norvegicus, UniProt Q00657); experiment: Binding of peptide to NG2 (no method given)
[2] = test system: recombinant fragment of rat NG2 (NG2ECΔ3); experiment: Biopanning of linear decapeptide phage library on NG2-coated wells; assay type: binding; settings: for selection/enrichment of NG2-binding sequences in in vitro panning: five successive rounds on NG2-coated wells
From the text: To identify peptide motifs capable of interacting with NG2, recombinant NG2 fragments consisting of the N-terminal two-thirds of the extracellular domain of NG2 proteoglycan were generated. Briefly, a recombinant fragment of rat NG2 consisting of the N-terminal two-thirds of the extracellular domain (NG2ECΔ3) was purified from transfected human embryonic kidney 293 cells as described (Tillet et al., J. Biol. Chem. 272:10769-10776 (1997)). Recombinant NG2 diluted in phosphate buffered saline (PBS) (2 μg NG2/well) was coated onto microtiter wells overnight at 4° C. Wells were blocked with 2% bovine serum albumin (BSA) in PBS for 1 hr at room temperature. For biopanning, phage (1×10^11 TU) from a linear decapeptide phage library diluted in 2% BSA were added to NG2-coated wells and incubated for 2 hr at room temperature. Wells were washed with PBS containing 0.1% TWEEN-20 to remove unbound phage. Bound phage were recovered by direct infection of wells with exponentially growing K91kan bacteria, followed by phage amplification overnight at 37° C. Amplified phage were then subjected to four subsequent rounds of selection on NG2-coated wells. Phage binding was quantified by counting colonies from aliquots of phage-infected bacteria removed from NG2-coated wells. Phage were sequenced from randomly selected clones as described previously (Rajotte et al., J. Clin. Invest. […]:430-437 (1998)).
To identify peptide motifs capable of interacting with NG2, the recombinant NG2 fragments were used to select phage clones from a random decapeptide phage display library. Bound phage were isolated and used for successive rounds of panning on the NG2 proteoglycan. Five successive rounds of biopanning were performed. Random clones were sequenced from rounds II to V. Sequence analysis from the final three rounds of panning are shown in Table 1. In parentheses is the number of clones displaying the same sequence. The sequences shown in column III of Table 1 are referenced as SEQ ID NOS:1-15.

[3] = test system: NG2Δ3; experiment: Inhibition of phage binding to NG2Δ3-coated wells by GST-peptide fusion proteins; design: species or system rat; settings: increasing concentrations of GST protein; for effect on binding of TAASGVRSMH-phage to NG2 coated wells: FIG. 3A; for effect on binding of LTLRWVGLMS-phage to NG2: FIG. 3B
Description: Binding of individual phage clones or an aliquot of unselected phage library control to NG2 or BSA-coated control wells was performed as described above using 1×10^9 input phage/well. For competition studies, phage incubations were performed in the presence of increasing concentrations of soluble NG2 or GST-fusion proteins.
GST-fusion proteins containing the decapeptide inserts were constructed as previously described (Rajotte et al., J. Clin. Invest. 102:430-437 (1998)). Briefly, peptide inserts were amplified by polymerase chain reaction (PCR) from the phage using specific M13 primers. PCR products were then digested with BamHI and EcoRI and inserted into the pGEX2TK vector. Fusion proteins were produced and purified according to the manufacturer's instructions (Pharmacia Biotech Inc.; Piscataway N.J.).
GST-peptide fusion proteins containing one of the two NG2-binding motifs, TAASGVRSMH (SEQ ID NO:1) or LTLRWVGLMS (SEQ ID NO:2), were tested for their ability to inhibit binding of phage to NG2Δ3-coated wells. Purified TAASGVRSMH-phage and LTLRWVGLMS-phage were incubated in NG2Δ3-coated wells in the presence of increasing concentrations of GST-TAASGVRSMH fusion protein, GST-LTLRWVGLMS fusion protein, or GST alone, and phage binding was quantified. Results shown in FIG. 3 are representative of three independent experiments and error bars show S.E.M. of the mean from triplicate platings of duplicate wells. The differences indicated by “*” are considered highly significant by student t test (p<0.01).

[4] = test system: NG2Δ3; experiment: Solid-phase assay: binding of soluble NG2Δ3 to immobilized GST-peptide fusion proteins; design: species or system rat; settings: soluble fusion protein, increasing concentrations (50 mg in FIG. 4A)
Description: Solid-phase assays were performed as described previously (Burg et al., supra, 1996). Briefly, fusion proteins (2 μg/well) were coated onto microtiter wells overnight at 4° C. Wells were blocked with 2% BSA in PBS and incubated with soluble NG2Δ3 (1 μg/well) for 2 hr at room temperature. After washing, wells were then incubated with an anti-NG2 polyclonal antibody followed by washing and incubation with an ^125I-labeled goat anti-rabbit IgG. After final washing, bound radioactivity was determined using a gamma counter. For competition studies, soluble NG2Δ3 was preincubated 15 min with increasing concentrations of soluble GST-fusion proteins prior to incubation on wells coated with GST-fusion protein.
The ability of soluble NG2 to bind to GST-TAASGVRSMH and GST-LTLRWVGLMS was tested by using a solid phase assay. Purified NG2Δ3 was incubated in wells coated with GST-TAASGVRSMH or GST-LTLRWVGLMS in the absence of inhibitor, or after preincubation with 50 mg of soluble GST-TAASGVRSMH, GST-LTLRWVGLMS or GST alone. Binding of NG2Δ3 was determined, and the results shown in FIG. 4 are representative of three independent experiments. Error bars show S.E.M. of the mean from triplicate wells. The differences indicated by “*” are considered significant by student t test (p<0.05). The differences indicated by “**” are considered highly significant by student t test (p<0.01).

Chain of NG2Δ3 (Q00657 30-1450 limits assumed, stated change not applied): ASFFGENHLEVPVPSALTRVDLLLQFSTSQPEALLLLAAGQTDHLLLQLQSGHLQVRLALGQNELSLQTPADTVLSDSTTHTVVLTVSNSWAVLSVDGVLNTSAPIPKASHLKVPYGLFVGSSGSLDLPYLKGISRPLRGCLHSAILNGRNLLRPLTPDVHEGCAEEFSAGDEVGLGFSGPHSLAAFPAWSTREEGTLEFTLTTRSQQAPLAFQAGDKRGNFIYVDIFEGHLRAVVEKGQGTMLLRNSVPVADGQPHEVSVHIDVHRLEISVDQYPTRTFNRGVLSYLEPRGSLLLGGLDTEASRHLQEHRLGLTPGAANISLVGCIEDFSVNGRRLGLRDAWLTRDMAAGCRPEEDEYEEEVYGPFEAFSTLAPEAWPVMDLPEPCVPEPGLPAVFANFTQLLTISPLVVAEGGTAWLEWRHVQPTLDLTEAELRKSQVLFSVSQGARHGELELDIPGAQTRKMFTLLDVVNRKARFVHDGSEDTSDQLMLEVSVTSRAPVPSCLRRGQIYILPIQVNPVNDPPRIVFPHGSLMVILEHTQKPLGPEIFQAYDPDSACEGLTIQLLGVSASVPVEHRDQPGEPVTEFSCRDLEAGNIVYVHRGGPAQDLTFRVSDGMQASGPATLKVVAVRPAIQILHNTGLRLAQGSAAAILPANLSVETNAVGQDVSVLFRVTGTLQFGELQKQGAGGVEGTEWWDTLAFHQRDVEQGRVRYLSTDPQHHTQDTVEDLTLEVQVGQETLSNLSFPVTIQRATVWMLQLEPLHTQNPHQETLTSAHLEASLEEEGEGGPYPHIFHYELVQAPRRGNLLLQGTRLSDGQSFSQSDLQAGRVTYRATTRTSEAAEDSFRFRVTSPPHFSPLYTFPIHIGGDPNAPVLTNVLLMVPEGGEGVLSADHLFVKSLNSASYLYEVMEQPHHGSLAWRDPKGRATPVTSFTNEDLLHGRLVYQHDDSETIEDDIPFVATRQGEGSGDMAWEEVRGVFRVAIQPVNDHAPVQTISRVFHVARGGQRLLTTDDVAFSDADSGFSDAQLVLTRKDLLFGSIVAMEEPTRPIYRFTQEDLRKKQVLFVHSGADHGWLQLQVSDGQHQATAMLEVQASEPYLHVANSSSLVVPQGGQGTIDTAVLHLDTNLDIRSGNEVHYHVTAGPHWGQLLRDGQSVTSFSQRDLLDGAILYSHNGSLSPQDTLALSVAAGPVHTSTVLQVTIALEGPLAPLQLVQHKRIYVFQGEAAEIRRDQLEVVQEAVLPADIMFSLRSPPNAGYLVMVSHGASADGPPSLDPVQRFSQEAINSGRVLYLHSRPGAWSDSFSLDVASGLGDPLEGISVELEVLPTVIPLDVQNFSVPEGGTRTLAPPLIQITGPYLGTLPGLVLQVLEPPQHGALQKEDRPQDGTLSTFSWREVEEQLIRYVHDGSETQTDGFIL
Chain of recombinant fragment of rat NG2 (NG2ECΔ3) (Q00657 30-1450 limits assumed, stated change not applied): as above
Chain of NG2 (Q00657 30-2326): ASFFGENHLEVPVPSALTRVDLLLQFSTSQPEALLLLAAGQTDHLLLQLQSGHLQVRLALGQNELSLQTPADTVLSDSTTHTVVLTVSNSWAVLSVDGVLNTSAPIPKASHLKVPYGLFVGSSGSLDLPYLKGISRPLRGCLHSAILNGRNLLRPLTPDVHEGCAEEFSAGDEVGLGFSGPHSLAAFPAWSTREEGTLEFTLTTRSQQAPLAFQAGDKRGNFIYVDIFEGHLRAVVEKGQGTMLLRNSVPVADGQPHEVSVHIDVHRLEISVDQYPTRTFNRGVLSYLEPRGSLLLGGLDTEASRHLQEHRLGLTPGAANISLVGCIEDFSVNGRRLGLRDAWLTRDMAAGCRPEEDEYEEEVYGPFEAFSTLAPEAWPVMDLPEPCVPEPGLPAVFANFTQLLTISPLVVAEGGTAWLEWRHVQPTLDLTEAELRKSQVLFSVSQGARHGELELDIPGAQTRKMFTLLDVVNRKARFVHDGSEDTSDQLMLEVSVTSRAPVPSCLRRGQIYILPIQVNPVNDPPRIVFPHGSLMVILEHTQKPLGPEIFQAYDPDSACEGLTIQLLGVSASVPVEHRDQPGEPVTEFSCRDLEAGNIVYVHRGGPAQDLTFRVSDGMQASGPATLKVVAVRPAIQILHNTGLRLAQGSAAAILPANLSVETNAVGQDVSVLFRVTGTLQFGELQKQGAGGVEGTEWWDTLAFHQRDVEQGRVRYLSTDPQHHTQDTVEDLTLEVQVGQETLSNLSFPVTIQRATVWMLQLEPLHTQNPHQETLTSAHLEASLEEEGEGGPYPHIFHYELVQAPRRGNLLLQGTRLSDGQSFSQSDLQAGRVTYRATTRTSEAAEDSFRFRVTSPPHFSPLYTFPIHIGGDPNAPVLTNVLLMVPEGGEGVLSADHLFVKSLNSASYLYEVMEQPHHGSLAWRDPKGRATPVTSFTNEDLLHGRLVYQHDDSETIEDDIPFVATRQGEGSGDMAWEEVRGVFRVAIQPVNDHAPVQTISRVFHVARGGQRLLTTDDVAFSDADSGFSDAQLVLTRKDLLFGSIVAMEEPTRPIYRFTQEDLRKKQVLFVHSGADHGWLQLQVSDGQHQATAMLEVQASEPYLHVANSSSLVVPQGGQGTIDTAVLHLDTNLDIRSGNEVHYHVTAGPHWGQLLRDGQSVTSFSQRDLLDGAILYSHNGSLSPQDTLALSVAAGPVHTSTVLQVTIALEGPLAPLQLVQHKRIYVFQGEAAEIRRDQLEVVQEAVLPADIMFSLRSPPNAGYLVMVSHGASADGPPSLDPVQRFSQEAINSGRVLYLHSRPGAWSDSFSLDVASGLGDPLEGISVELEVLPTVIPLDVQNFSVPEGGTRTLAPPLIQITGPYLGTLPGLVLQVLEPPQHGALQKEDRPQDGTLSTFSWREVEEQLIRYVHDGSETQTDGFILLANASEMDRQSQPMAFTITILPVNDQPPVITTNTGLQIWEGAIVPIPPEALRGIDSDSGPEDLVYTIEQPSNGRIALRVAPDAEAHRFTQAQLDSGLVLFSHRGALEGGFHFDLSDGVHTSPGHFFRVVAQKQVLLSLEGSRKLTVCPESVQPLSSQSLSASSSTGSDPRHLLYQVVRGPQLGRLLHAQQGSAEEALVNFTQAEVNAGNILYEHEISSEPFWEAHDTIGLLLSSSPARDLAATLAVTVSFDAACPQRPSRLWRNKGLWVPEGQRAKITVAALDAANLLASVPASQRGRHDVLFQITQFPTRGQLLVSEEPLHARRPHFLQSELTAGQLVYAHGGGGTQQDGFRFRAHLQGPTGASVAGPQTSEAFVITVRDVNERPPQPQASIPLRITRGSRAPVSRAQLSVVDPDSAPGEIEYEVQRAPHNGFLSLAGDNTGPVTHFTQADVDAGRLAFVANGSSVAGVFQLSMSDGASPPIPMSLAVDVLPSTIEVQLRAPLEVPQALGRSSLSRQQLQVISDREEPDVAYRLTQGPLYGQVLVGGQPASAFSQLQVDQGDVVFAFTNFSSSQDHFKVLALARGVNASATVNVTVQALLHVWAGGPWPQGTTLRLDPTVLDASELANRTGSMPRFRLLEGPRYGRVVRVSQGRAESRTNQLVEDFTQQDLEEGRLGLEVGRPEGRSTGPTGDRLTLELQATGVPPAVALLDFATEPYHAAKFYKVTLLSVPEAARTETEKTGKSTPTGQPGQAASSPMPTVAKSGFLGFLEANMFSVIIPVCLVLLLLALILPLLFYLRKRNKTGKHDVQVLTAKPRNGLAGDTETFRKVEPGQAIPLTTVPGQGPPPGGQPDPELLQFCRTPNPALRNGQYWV

CLSGSLSC was tested. Which “binding to NG2” value [1] did it give?
Its value is “found to bind to NG2”.

How did the “number of clones displaying the same sequence” value ([2]; panning round III) turn out when GGGTRAGMKY was run?
The value was “GGGTRAGMKY (SEQ ID NO: 3) (2)”.

Which results are given for “GST-LTLRWVGLMS: GST-fusion protein containing the decapeptide insert LTLRWVGLMS ({GST}-LTLRWVGLMS)”?
effect on binding of TAASGVRSMH-phage to NG2 coated wells [3]: inhibited; effect on binding of LTLRWVGLMS-phage to NG2 [3]: inhibited the binding; effect of preincubation on binding of NG2 to wells coated with GST-TAASGVRSMH [4]: inhibited binding

What does the source list for “GST-TAASGVRSMH: GST-fusion protein containing the decapeptide insert TAASGVRSMH ({GST}-TAASGVRSMH)”?
effect on binding of TAASGVRSMH-phage to NG2 coated wells [3]: dose-dependent decrease in binding; effect on binding of LTLRWVGLMS-phage to NG2 [3]: inhibited the binding; effect of preincubation on binding of NG2 to wells coated with GST-TAASGVRSMH [4]: dose-dependent decrease in binding

What does the source list for LTLRWVGLMS?
selection/enrichment of NG2-binding sequences in in vitro panning [2]: specifically enriched in later rounds of in vitro panning; number of clones displaying the same sequence ([2]; panning round IV): LTLRWVGLMS (10); number of clones displaying the same sequence ([2]; panning round V): LTLRWVGLMS (SEQ ID NO: 2) (7)

What does the source list for TAASGVRSMH?
selection/enrichment of NG2-binding sequences in in vitro panning [2]: specifically enriched in later rounds of in vitro panning; number of clones displaying the same sequence ([2]; panning round IV): TAASGVRSMH (16); number of clones displaying the same sequence ([2]; panning round V): TAASGVRSMH (SEQ ID NO: 1) (8)

How did the “effect on binding of TAASGVRSMH-phage to NG2 coated wells” value [3] turn out when “control GST protein: control GST protein containing no peptide insert [reference compound]” was run?
The value was “little effect on binding”.

And the “effect on binding of LTLRWVGLMS-phage to NG2” value [3]?
The value was “no significant effect on the binding”.
